The subject of test [1] is human vascular smooth muscle cells. The experiment in a line: Inhibitory activity against adhesion of human vascular smooth muscle cells to vitronectin. Format: cell-based. The procedure: The adhesion of human vascular smooth muscle cells to immobilized human vitronectin was measured in accordance with the method of Liaw et al. (Liaw L, Almeida M, Hart C E, Schwartz S M, and Giachelli C M, Circulation Research, 74 (2), 214-224 (1994)).
A Dulbecco's phosphate buffer (Dulbecco's PBS(−), Nissui Pharmaceutical Co., Ltd.) solution of human plasma-derived vitronectin (CALBIOCHEM) adjusted to a concentration of 4 μg/ml was first added to wells (50 μl/well) of a microplate (Maxisorp, Nunc), and a reaction for immobilization was allowed to proceed at 4° C. overnight. After washing twice with 150 μl of Dulbecco's phosphate buffer, a Dulbecco's phosphate buffer containing 10 mg/ml of bovine serum albumin (SIGMA) was added, followed by blocking at 37° C. for one hr. […]
Next, 50 μl of a Dulbecco's modified Eagle's basal medium containing 0.1% of bovine serum albumin with a medicament added thereto was added to the wells of the human vitronectin-coated assay microplate, followed by pre-cultivation under 5% carbon dioxide at 37° C. for 10 min. […] The absorbance of the microplate thus obtained was measured at 595 nm. […] The inhibition was calculated by the following equation. IC50 was determined from a primary regression line of the logarithm of each concentration of the test compound and the logarithm of (100−inhibition)/inhibition. […]

For test [2], the target named is T1, integrin αvβ3 (vitronectin receptor purified from the human placenta) (Homo sapiens, UniProt P05106+P06756).
T1 construct: a vitronectin receptor (protein content: 118 mg/ml) purified from the human placenta; from tissue; host or cells: human placenta
Kind of test: αvβ3 binding assay (vitronectin-vitronectin receptor binding assay). The note with it: vitronectin binding to coated human placenta vitronectin receptor; read-out: integrin αvβ3 antagonistic activity (IC50). How it is done:
Integrin αvβ3 antagonistic activity was first measured in a vitronectin-vitronectin receptor binding assay system in accordance with the method of Kouns et al. (W. C. Kouns, D. Kirchhofer, P. Hadvary, A. Edenhofer, T. Weller, G. Pfenninger, H. R. Baumgartner, L. K. Jennings and B. Steiner, Blood, 80, 2539-2547 (1992)). […] A 0.1 M citric acid buffer (pH 4.3) containing 0.05% NaN3 was added in an amount of 50 μl/well to stop the reaction, followed by the measurement of the absorbance at 415 nm with a microplate reader (MTP 32, Corona Electric) (reference: 675 nm). The total binding was defined as the absorbance after a reaction using 50 μl of TBS-Tween instead of the test compound, and the non-specific binding (100% inhibition) was defined as the absorbance after a reaction using 50 μl of TBS-Tween containing 2×10^−3 M RGDS. The inhibition was calculated by the following equation: [formula]
IC50 was determined from a primary regression line of the logarithm of each concentration of the test compound and the logarithm of (100−inhibition)/inhibition.

Test [3] concerns the target GP IIb/IIIa (Homo sapiens, UniProt P05106+P08514). Kind of test: GP IIb/IIIa antagonistic activity (method of Pharmacological Test 2 in WO 94/21599). The test is classed as binding. How it is done:
GP IIb/IIIa antagonistic activity was measured for the compounds according to the present invention. The measurement of the GP IIb/IIIa antagonistic activity was carried out according to the method described in Pharmacological Test 2 in WO 94/21599. As a result, both the compounds prepared in Examples 3 and 6 had significant GP IIb/IIIa antagonistic activity. In particular, the IC50 value of the compound prepared in Example 3 was 2.0 nM.

For orientation: IC50 means the concentration that inhibits the measured activity by half.

GP IIb/IIIa, sequence (P08514 32-887 limits assumed): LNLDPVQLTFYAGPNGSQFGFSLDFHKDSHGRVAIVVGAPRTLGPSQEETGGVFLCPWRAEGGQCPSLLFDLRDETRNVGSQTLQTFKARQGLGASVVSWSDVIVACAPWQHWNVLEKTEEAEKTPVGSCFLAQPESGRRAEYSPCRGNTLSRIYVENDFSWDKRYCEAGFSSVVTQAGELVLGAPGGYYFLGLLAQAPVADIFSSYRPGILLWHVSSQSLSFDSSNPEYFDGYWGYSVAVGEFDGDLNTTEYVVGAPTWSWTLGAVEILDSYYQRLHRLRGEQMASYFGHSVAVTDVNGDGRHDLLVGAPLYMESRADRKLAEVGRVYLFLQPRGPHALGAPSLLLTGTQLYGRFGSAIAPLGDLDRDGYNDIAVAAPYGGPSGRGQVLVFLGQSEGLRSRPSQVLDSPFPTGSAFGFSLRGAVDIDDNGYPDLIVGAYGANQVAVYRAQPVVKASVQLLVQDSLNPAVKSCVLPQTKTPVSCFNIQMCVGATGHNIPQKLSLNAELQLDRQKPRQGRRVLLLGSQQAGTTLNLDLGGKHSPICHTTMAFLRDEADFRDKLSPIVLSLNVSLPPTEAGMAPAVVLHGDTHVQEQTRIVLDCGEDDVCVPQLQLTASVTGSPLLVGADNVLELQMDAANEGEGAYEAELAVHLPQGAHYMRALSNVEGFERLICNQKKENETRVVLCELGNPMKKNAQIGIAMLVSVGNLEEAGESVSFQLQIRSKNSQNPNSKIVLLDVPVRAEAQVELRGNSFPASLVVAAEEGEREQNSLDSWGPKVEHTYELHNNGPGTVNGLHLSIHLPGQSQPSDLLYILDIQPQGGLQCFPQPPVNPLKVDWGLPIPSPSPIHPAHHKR
GP IIb/IIIa, sequence (P08514 891-1039 partner limits assumed): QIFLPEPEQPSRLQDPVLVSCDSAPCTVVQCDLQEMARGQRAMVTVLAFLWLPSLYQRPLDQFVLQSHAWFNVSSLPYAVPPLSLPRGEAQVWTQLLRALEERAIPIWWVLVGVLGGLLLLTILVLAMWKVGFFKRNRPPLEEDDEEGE
GP IIb/IIIa, sequence (P05106 27-788): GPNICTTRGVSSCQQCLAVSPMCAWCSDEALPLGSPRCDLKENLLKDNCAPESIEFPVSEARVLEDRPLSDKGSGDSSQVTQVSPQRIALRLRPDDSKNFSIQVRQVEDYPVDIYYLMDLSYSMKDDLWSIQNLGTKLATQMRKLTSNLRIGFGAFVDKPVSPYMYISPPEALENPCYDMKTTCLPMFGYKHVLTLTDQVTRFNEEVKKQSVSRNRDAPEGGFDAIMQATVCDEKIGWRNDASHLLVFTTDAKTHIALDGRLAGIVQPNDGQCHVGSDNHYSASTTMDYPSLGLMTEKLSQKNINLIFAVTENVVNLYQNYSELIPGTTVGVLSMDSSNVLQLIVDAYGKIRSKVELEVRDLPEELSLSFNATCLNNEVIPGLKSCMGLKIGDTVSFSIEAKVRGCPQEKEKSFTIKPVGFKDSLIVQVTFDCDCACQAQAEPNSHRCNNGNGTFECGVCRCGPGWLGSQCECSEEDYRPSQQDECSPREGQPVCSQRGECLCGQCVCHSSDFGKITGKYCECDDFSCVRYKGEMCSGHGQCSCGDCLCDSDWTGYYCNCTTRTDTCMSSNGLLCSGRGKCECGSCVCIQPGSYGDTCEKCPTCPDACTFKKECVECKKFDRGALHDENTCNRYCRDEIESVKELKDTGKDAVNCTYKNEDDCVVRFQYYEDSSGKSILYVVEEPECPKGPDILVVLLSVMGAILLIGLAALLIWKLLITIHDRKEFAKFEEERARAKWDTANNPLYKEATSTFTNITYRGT
T1 sequence (P06756 31-889 limits assumed): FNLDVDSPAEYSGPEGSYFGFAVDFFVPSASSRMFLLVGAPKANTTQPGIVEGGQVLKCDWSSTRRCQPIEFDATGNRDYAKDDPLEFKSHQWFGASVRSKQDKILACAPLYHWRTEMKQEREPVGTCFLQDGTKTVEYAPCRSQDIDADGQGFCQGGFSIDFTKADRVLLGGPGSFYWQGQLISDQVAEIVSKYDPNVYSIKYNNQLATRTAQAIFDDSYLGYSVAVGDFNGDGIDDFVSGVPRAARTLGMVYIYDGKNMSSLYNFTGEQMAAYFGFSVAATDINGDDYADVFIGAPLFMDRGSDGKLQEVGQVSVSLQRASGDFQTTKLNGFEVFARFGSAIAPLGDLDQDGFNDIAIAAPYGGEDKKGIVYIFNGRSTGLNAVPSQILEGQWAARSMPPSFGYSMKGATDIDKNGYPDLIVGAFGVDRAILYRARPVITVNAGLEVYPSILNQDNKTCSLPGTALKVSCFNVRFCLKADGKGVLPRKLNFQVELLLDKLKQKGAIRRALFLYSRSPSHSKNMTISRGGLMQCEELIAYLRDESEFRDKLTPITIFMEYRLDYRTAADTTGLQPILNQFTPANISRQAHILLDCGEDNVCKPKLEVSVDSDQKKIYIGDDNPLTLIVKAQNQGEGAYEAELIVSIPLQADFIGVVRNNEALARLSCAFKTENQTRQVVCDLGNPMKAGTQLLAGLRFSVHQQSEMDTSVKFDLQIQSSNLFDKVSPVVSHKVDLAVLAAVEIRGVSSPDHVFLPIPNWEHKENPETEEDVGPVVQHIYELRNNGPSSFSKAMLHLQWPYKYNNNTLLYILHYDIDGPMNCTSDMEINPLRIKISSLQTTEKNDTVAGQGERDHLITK
T1 sequence (P06756 891-1048 partner limits assumed): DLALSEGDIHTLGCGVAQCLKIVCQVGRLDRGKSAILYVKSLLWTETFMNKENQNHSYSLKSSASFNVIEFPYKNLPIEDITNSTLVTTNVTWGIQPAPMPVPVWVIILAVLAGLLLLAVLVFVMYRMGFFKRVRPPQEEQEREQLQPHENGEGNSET
T1 sequence (P05106 27-788): as the sequence (P05106 27-788) above

Take `O=C(NC[C@H](NS(=O)(=O)c1ccccc1)C(=O)O)c1cc(N2CCC(NC3=NCCCN3)CC2)cc(C(F)(F)F)c1` [Example 27, (2S)-Benzenesulfonylamino-3-[3-{4-(1,4,5,6-tetrahydropyrimidin-2-ylamino)piperidin-1-yl}-5-(trifluoromethyl)benzoylamino]propionic acid]: 96 nM corresponded to half-maximal inhibition in test [1] (immobilized human vitronectin) (IC50). For the same compound, the “cell adhesion inhibitory activity” value in test [1] (result in words) is listed as “potent”.
As to `O=C(NC[C@H](NS(=O)(=O)c1ccccc1)C(=O)O)c1cccc(N2CCN(C3=NCCCN3)CC2)c1` [Example 3, (2S)-Benzenesulfonylamino-3-[3-{4-(1,4,5,6-tetrahydropyrimidin-2-yl)piperazin-1-yl}benzoylamino]-propionic acid], the IC50 was determined as 1.3 nM in test [2] and 2 nM in test [3].
On to `O=C(NC[C@H](NS(=O)(=O)c1ccccc1)C(=O)O)c1cccc(N2CCC(NC3=NCCCN3)CC2)c1` [Example 6, (2S)-Benzenesulfonylamino-3-[3-{4-(1,4,5,6-tetrahydropyrimidin-2-ylamino)piperidin-1-yl}benzoylamino]propionic acid], for which the “GP IIb/IIIa antagonistic activity” value in test [3] (result in words) was “significant”.
On to `O=C(NC[C@H](NS(=O)(=O)c1ccccc1)C(=O)O)c1ccc(F)c(N2CCC(NC3=NCCCN3)CC2)c1` [Example 9, (2S)-Benzenesulfonylamino-3-[4-fluoro-3-{4-(1,4,5,6-tetrahydropyrimidin-2-ylamino)piperidin-1-yl}-benzoylamino]propionic acid], for which the concentration for half-maximal inhibition (IC50) in test [2] turned out to be 2 nM.

(Values after patent publication US20050059669A1, “M-substituted benzoic acid derivatives having integrin alpha v beta 3 antagonistic activity” (priority 1999, published 2005).)
